The series relates to SARS-CoV-2. The format is cell-based. As to conditions: result in words.

From patent US20230183703A1, “COMPOSITIONS AND METHODS FOR TREATING AND DETECTING CORONAVIRUS INFECTION” (HOWARD UNIVERSITY, priority 2020, published 2023) come the findings set out here.

Regarding “A25L: SEQ ID NO: 2: 10-nucleotide linker GGAGAATGAC sandwiched between two copies of a 25-mer poly(dA) sequence (DNA AAAAAAAAAAAAAAAAAAAAAAAAAGGAGAATGACAAAAAAAAAAAAAAAAAAAAAAAAA; further chemistry not given here)”, the “inhibition of SARS-CoV-2 proliferation in Vero-76 cells” value is “markedly inhibited”.

In the case of “A25: 5′-GGAGAATGACA(25)-3′, SEQ ID NO: 1: 10-nucleotide linker attached to 5′-end of a 25-mer poly(dA) sequence (DNA GGAGAATGACAAAAAAAAAAAAAAAAAAAAAAAAA; further chemistry not given here)”, the “inhibition of SARS-CoV-2 proliferation in Vero-76 cells” value is “markedly inhibited”.
